{"source": "patent US12213962B2", "about": "“Drug resistant immunotherapy for treatment of a cancer” (Emory University, priority 2009, dated 2025)", "origin": "cited, not measured here", "system": "AG104 sarcoma cells", "conditions": "mice transplanted with non-modified, TMTX-sensitive cells"}
{"smiles": "COc1cc(NCc2ccc3nc(N)nc(N)c3c2C)cc(OC)c1OC", "note": "[TMTX, trimetrexate]", "values": [{"measurement": "effect on efficacy of anti-CD137 antibody", "value": "reduced the efficacy"}]}
